The values that follow come from patent publication US10144742B2 (Millennium Pharmaceuticals, Inc., priority 2014, dated 2018).

Where two headings read alike, the source gives them in different places.

One experiment concerns PC3 cells. The experiment is described as follows: PC3 growth inhibition (Cell-titer glo, 72 hours). It is filed as cell-based. The following applies: Homo sapiens, PC-3, PC3 cells, 72 hours, Cell-titer glo, read-out: Percent Inhibition (PC3 growth inhibition); for inhibition at 1.667 µM: compound concentration 1.667 μM; for inhibition at 1 µM: compound concentration 1 μM. The method, boiled down:
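Compounds in AIM serum-free medium were applied for 72 h at 37 °C, 5% CO2 to PC3 cells plated overnight from RPMI1640 culture. Luminescence after 10 min CellTiter-Glo, normalised to DMSO, gave % viability at 1 μM or 1.667 μM, or GI50/LD50.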

The next experiment concerns the target hNAMPT protein (Homo sapiens (Human), UniProt P43490). Briefly: NAMPT enzyme assay (TR-FRET/HTRF, BodiPY ligand, anti 6His-Tb). It is filed as binding. The following applies: for IC50: NAMPT IC50 range class, read-out: IC50; for inhibition at 1 µM: read-out: Percent Inhibition. The method, boiled down:
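Compound or DMSO was incubated for 1 h at room temperature, protected from light, with BodiPY ligand and hNAMPT labelled by terbium anti-6His antibody. The 520 nm to 486 nm emission ratio after 320 nm excitation gave inhibition versus vehicle, from which concentration-response curves yielded IC50.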

Chain of hNAMPT protein (P43490 whole entry): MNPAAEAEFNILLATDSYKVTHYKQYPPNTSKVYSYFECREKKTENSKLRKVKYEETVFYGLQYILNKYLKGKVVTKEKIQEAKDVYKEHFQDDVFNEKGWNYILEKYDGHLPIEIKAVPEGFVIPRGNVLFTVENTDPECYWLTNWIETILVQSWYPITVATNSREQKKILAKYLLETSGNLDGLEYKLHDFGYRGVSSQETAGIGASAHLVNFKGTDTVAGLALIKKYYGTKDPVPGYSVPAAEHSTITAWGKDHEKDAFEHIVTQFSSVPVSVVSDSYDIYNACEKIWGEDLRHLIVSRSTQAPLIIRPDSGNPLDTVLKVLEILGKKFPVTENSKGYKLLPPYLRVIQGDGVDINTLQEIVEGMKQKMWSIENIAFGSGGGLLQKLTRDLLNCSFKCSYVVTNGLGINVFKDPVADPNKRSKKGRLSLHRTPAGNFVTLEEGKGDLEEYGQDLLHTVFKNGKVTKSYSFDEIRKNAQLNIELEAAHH

A word on the inhibition: it is the drop in the measured response relative to a control, in per cent. In general, IC50 refers to the concentration that inhibits the measured activity by half. Turning to `COc1nc2ccc(C(=O)NCCCc3ncc[nH]3)cc2nc1-c1ccc(Cl)cc1` [Compound I-109, 3-(4-chlorophenyl)-N-[3-(1H-imidazol-2-yl)propyl]-2-methoxyquinoxaline-6-carboxamide], in the experiment on PC3 cells, the inhibition at 1.667 µM was found to be 36%. Moreover, the IC50 on hNAMPT protein is below 100 nM. For the same compound, the inhibition at 1 µM at hNAMPT protein (compound concentration 1 μM) turned out to be 97%.
As for `O=C(NCCCc1ncc[nH]1)c1ccc2nc(OC3CCOCC3)c(-c3ccc(Cl)cc3)nc2c1` [Compound I-111, 3-(4-chlorophenyl)-N-[3-(1H-imidazol-2-yl)propyl]-2-(tetrahydro-2H-pyran-4-yloxy)quinoxaline-6-carboxamide], the inhibition at 1.667 µM in the experiment with PC3 cells is 2%. The IC50 at hNAMPT protein was below 100 nM. Also, on hNAMPT protein (compound concentration 1 μM), the inhibition at 1 µM was found to be 99%.
In the case of `O=C(NCCCn1ccnc1)c1ccc2nc(N3CCC(N4CCNCC4)CC3)c(-c3ccccc3)nc2c1` [Compound I-112, N-[3-(1H-imidazol-1-yl)propyl]-3-phenyl-2-[4-(piperazin-1-yl)piperidin-1-yl]quinoxaline-6-carboxamide], the inhibition at 1 µM with PC3 cells was -1%; on hNAMPT protein (compound concentration 1 μM), 100%. Besides, at hNAMPT protein, the IC50 is below 100 nM.
Regarding `CC1(C)CN(c2nc3cc(C(=O)NCCCn4ccnc4)ccc3nc2-c2ccccc2)CCO1` [Compound I-113, 3-(2,2-dimethylmorpholin-4-yl)-N-[3-(1H-imidazol-1-yl)propyl]-2-phenylquinoxaline-6-carboxamide], the results for the inhibition at 1 µM in the experiment on PC3 cells and at hNAMPT protein (compound concentration 1 μM) were -8% and 64%, respectively. The IC50 on hNAMPT protein lay in the range of 500 to 1000 nM.
Consider `O=C(NCCOc1cccnc1)c1ccc2nc(N3CCC(O)CC3)c(-c3ccc(F)cc3)nc2c1` [Compound I-114, 3-(4-Fluorophenyl)-2-(4-hydroxypiperidin-1-yl)-N-[2-(pyridin-3-yloxy)ethyl]quinoxaline-6-carboxamide], for which, in the experiment on PC3 cells, the inhibition at 1.667 µM came to 2%. On hNAMPT protein, the IC50 was below 100 nM and the inhibition at 1 µM is above 99%.
`C[C@@H]1CN(c2nc3ccc(C(=O)NCCCn4ccnc4)cc3nc2-c2ccccc2)C[C@H](C)O1` [Compound I-115, cis-2-[(2R,6S)-2,6-dimethylmorpholin-4-yl]-N-[3-(1H-imidazol-1-yl)propyl]-3-phenylquinoxaline-6-carboxamide]: the inhibition at 1 µM in the experiment on PC3 cells is -8%; at hNAMPT protein (compound concentration 1 μM), 100%. The IC50 at hNAMPT protein is below 100 nM.
Consider `O=C(NCCCc1ncc[nH]1)c1ccc2nc(N3CCCC3)c(-c3ccc(Cl)cc3)nc2c1` [Compound I-116, 3-(4-chlorophenyl)-N-[3-(1H-imidazol-2-yl)propyl]-2-(pyrrolidin-1-yl)quinoxaline-6-carboxamide], for which, in the experiment with PC3 cells, the inhibition at 1.667 µM came to 2%. Moreover, the IC50 at hNAMPT protein was below 100 nM. For the same compound, the inhibition at 1 µM on hNAMPT protein (compound concentration 1 μM) came to 98%.
Consider `O=C(NCCc1cccnc1)c1ccc2nc(-c3ccco3)c(-c3ccco3)nc2c1` [Compound I-117, 2,3-di(2-furyl)-N-[2-(pyridin-3-yl)ethyl]quinoxaline-6-carboxamide], for which the inhibition at 1 µM in the experiment with PC3 cells worked out at 97%; on hNAMPT protein (compound concentration 1 μM), 22%. Further, on hNAMPT protein, the IC50 fell in the range of 2000 to 10000 nM.
On to `O=C(NCCc1c[nH]cn1)c1ccc2nc(-c3ccccc3)c(-c3ccccc3)nc2c1` [Compound I-118, N-[2-(1H-imidazol-4-yl)ethyl]-2,3-diphenylquinoxaline-6-carboxamide], for which the inhibition at 1 µM was 85% with PC3 cells and 29% at hNAMPT protein (compound concentration 1 μM). Besides, the IC50 at hNAMPT protein lay within 2000 to 10000 nM.
Consider `Cn1cc(-c2nc3ccc(C(=O)NCCCn4ccnc4)cc3nc2-c2ccccc2)cn1` [Compound I-119, N-[3-(1H-imidazol-1-yl)propyl]-2-(1-methyl-1H-pyrazol-4-yl)-3-phenylquinoxaline-6-carboxamide], for which the inhibition at 1 µM with PC3 cells is -8%; on hNAMPT protein (compound concentration 1 μM) it was 58%. For the same compound, on hNAMPT protein, the IC50 lay within 500 to 1000 nM.
Consider `NCc1cccc(-c2nc3cc(C(=O)NCCCn4ccnc4)ccc3nc2-c2ccccc2)c1` [Compound I-120, 3-[3-(Aminomethyl)phenyl]-N-[3-(1H-imidazol-1-yl)propyl]-2-phenylquinoxaline-6-carboxamide], for which the inhibition at 1 µM with PC3 cells was 1%. For the same compound, on hNAMPT protein, the IC50 lay within 2000 to 10000 nM and the inhibition at 1 µM stood at 47%.
